Entries after “also recorded” stand apart in the source; their conditions may differ.
Key:
canines = conditions: cited from earlier work
tear staining = experiment: controlling tear staining in Maltese dogs; format: in vivo
Description: In preparation of the medicated animal food composition, all of the ingredients (except for the tylosin) are initially processed into a powder and then mixed together with the tylosin, as a tartrate. Tylosin is available from the Omaha Vaccine Co. under the brand name TYLAN and is a veterinary antibiotic that is FDA-approved for fowl (chickens/turkeys) and swine (pigs). Tylosin is used primarily to treat respiratory disease caused by Mycoplasma gallisepticum.

| Structure (SMILES) | side effects when used to treat excessive tearing (canines) | effect in controlling tear staining (tear staining) |
| --- | --- | --- |
| CN(C)[C@@H]1C(O)=C(C(N)=O)C(=O)[C@@]2(O)C(O)=C3C(=O)c4c(O)cccc4[C@@](C)(O)[C@H]3C[C@@H]12 [Tetracycline] | upset stomach; also recorded: staining of the teeth |  |
| CC[C@H]1OC(=O)C[C@@H](O)[C@H](C)[C@@H](O[C@@H]2O[C@H](C)[C@@H](O[C@H]3C[C@@](C)(O)[C@@H](O)[C@H](C)O3)[C@H](N(C)C)[C@H]2O)[C@@H](CC=O)C[C@@H](C)C(=O)/C=C/C(C)=C/[C@@H]1CO[C@@H]1O[C@H](C)[C@@H](O)[C@@H](OC)[C@H]1OC [Tylosin] |  | some beneficial effect |
